Experimental data: patent publication US20140377340A1, “HLA-DR BINDING PEPTIDES AND THEIR USES” (priority 2007, published 2014)

Legend:
purified HLA DRB1*0301 = molecular target: T1, purified HLA DRB1*0301 (Homo sapiens, UniProt P01903+P01911, A100K/A102G/A103R/A169T/F55Y/I96L/K41T/L162R/M171V/P40S/Q125H/Q178H/Q39Y/R42S/S66N/T106N/T262R/W38E/Y61H); assay: HLA-DR radioligand binding inhibition assay, DRB1*0301; conditions: IC50 nM purified HLA DRB1 *0301, purified HLA DRB1*0301
T1 construct: purified from EBV transformed homozygous cell lines or single MHC allele transfected 721.221, C1R, or fibroblast lines; made in house
Experimental: (§1) Instead, wells of an opaque white 96-well Optiplate (Packard) are coated with 3 μg (100 μl@ 30 μg/ml) of HLA-specific antibody (Ab) that “capture” complexes of radiolabeled MHC and unlabeled peptide transferred from the molecular binding assay plate in 100 μl of 0.05% NP40/PBS. After a 3-hour incubation period, the supernatant is decanted and scintillation fluid (Microscint 20) added. Captured complexes are then measured on a microplate scintillation and luminescence counter (TopCount NXTTM; Packard).
(§2) HLA-DR purification. Fifteen distinct HLA-DR molecules were used in quantitative assays to measure the binding of peptides to solubilized HLA-DR molecules. […] Briefly, columns of inactivated Sepharose CL4B and Protein A Sepharose were used as pre-columns. HLA-DR molecules were captured by passage of lysates over LB3.1 monoclonal antibody (anti-HLA-DRA) columns. Antibody columns were washed with 10 mM Tris-HCL, pH8.0 with 1% (v/v) NP-40, followed by PBS containing 0.4% (w/v) n-octylglucoside.
(§3) Briefly, 1-10 nM of radiolabeled peptide was co-incubated for 2 days at either room temperature or 37° C. with 1 μM to 1 nM purified HLA-DR molecules in the presence of a cocktail of protease inhibitors. Assays were performed at various pH conditions, ranging from pH 4 to pH 7. […] After incubation, the percentage of HLA-DR-bound radioactivity is determined by capturing HLA-DR/peptide complexes on Optiplates (Packard Instruments, Meriden, Conn.) coated with the LB3.1 antibody and determining bound counts per minute using the TopCount microscintillation counter (Packard Instruments).

purified HLA DRB1*0404 = molecular target: T2, purified HLA DRB1*0404 (Homo sapiens, UniProt P01903+P01911, A100R/A169T/F76Y/I96L/K127E/L162R/M171V/N62H/P40V/Q125Y/R42H/S133A/S149N/S66Y/V209L/W38E); assay: HLA-DR radioligand binding inhibition assay, DRB1*0404; conditions: IC50 nM purified HLA DRB1 *0404, purified HLA DRB1*0404
T2 construct: purified from EBV transformed homozygous cell lines or single MHC allele transfected 721.221, C1R, or fibroblast lines; made in house
Outline: (§4)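 Competition binding: 1-10 nM radiolabeled peptide + 1 μM–1 nM HLA-DR, protease inhibitor cocktail, 2 d, RT or 37° C., pH 4–7. LB3.1 capture 3 h in 0.05% NP40/PBS; scintillation counting.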

purified HLA DRB1*0802 = molecular target: T3, purified HLA DRB1*0802 (Homo sapiens, UniProt P01903+P01911, A100R/A103L/A169T/F76Y/H45Y/I96F/K41T/L162R/M171V/P40S/Q125H/Q178H/Q39Y/Q99D/R218S/R42G/S66Y/V115G/W38E); assay: HLA-DR radioligand binding inhibition assay, DRB1*0802; conditions: IC50 nM purified HLA DRB1 *0802, purified HLA DRB1*0802
T3 construct: purified from EBV transformed homozygous cell lines or single MHC allele transfected 721.221, C1R, or fibroblast lines; made in house
Experimental: as §1
as §2, with “n-octylglucoside. […] The pH was reduced to 8.0 and the eluates were concentrated by centrifugation in Centriprep 30 concentrators at 2000 rpm (Amicon, Beverly, Mass.).” for “n-octylglucoside.”
as §3, with “Instruments). […] Competitor peptides are tested in 2-4 complete, independent experiments, at concentrations ranging from […].” for “Instruments).”

purified HLA DRB1*1101 = molecular target: T4, purified HLA DRB1*1101 (Homo sapiens, UniProt P01903+P01911, A100R/A169T/A87E/I96F/K41T/L162R/M171V/P40S/Q125H/Q178H/Q39Y/Q99D/R42S/S66Y/T262R/V115G/W38E); assay: HLA-DR radioligand binding inhibition assay, DRB1*1101; conditions: IC50 nM purified HLA DRB1 *1101, purified HLA DRB1*1101
T4 construct: purified from EBV transformed homozygous cell lines or single MHC allele transfected 721.221, C1R, or fibroblast lines; made in house
Outline: as §4

purified HLA DRB1*1201 = molecular target: T5, purified HLA DRB1*1201 (Homo sapiens, UniProt P01903+P01911, A100R/A169T/D57E/D86V/F55L/H45Y/K41T/L162R/M171V/P40S/Q125H/Q178H/Q39Y/Q99D/R42G/S66L/T262R/V114A/V67L/W38E/Y59H/Y61H/Y89S); assay: HLA-DR radioligand binding inhibition assay, DRB1*1201
T5 construct: purified from EBV transformed homozygous cell lines or single MHC allele transfected 721.221, C1R, or fibroblast lines; made in house
Experimental: as §1
as §2, with “n-octylglucoside. […] The pH was reduced to 8.0 and the eluates were concentrated by centrifugation in Centriprep 30 concentrators at 2000 rpm (Amicon, Beverly, Mass.).” for “n-octylglucoside.”
as §3, with “Instruments). […] Competitor peptides are tested in 2-4 complete, independent experiments, at concentrations ranging from […].” for “Instruments).”

purified HLA DRB3*0101 = molecular target: T6, purified HLA DRB3*0101 (Homo sapiens, UniProt P01903+P79483); assay: HLA-DR radioligand binding inhibition assay, DRB3*0101; conditions: IC50 nM purified HLA DRB3 *0101, purified HLA DRB3*0101
T6 construct: purified from EBV transformed homozygous cell lines or single MHC allele transfected 721.221, C1R, or fibroblast lines; made in house
Experimental: as §1
as §2, with “n-octylglucoside. […] The pH was reduced to 8.0 and the eluates were concentrated by centrifugation in Centriprep 30 concentrators at 2000 rpm (Amicon, Beverly, Mass.).” for “n-octylglucoside.”
as §3, with “Instruments). […] Competitor peptides are tested in 2-4 complete, independent experiments, at concentrations ranging from […].” for “Instruments).”

[1] = tested on: peptide-specific T cells in PBMC; assay: 10-day interferon-gamma ELIspot with PBMC of breast or ovarian cancer patients and healthy controls; type: cell-based, human; conditions: fraction of breast or ovarian cancer patients with mean T cell values above cutoff (mean + 2 SD of healthy donors)
Excerpt: Each panel represents a unique peptide and each data point is derived from one individual. The grey box (i.e. cutoff) delineates the region that constitutes the mean and two standard deviations calculated from the normal healthy individuals. The percentages represent the fraction of patients that had mean T cell values above the cutoff. The peptides that are circled are those in which a higher fraction of the patients responded compared to the normal healthy controls. These peptides are considered to be the best vaccine candidates. However, it is clear that the rigidness of this approach could potentially result in many false negatives. […] Despite this, we identified 5 candidates to move forward. The fidelity of this approach is evident from a prior study which has already shown that a HER-2/neu peptide, p884-899, which encompasses the binding motif of p885, is an HLA-DR4 epitope.
Enzyme-linked immunosorbent spot assay. A 10-day ELlspot for detecting low-frequency T cells was used to determine reactivity to the tumor antigen peptides (Table 1) as described (Knutson K L et al. J Clin Onc 2006;24: 4254-61). […] PMA/Ionomycin and the CEF pool were used as positive non-tumor related controls as previously described (Knutson, 2006).
Using predictive algorithms discussed above, candidate HLA-DR1-binding epitopes were identified. […] An interferon-gamma ELIspot assay was used to assess immunity to the indiscriminate binding peptides in 48 patients with either breast or ovarian cancer and 18 healthy controls.
Using an ELlspot assay with a limit of detection of approximately […], patient-derived PBMC were screened for reactivity against all of the HLA-DR binding peptides.

[2] = tested on: 15 different HLA-DR molecules; assay: HLA-DR binding assays, panel of 15 different HLA-DR molecules (breadth of binding); conditions: number of the 15 HLA-DR molecules bound (binders: 1000 nM or better)
purified HLA DRB1*0401 = molecular target: T7, purified HLA DRB1*0401 (Homo sapiens, UniProt P01903+P01911, A100K/A169T/F76Y/I96L/K127E/L162R/M171V/N62H/P40V/Q125Y/R42H/S133A/S149N/S66Y/V115G/V209L/W38E); assay: HLA-DR radioligand binding inhibition assay, DRB1*0401; conditions: IC50 nM purified HLA DRB1 *0401, purified HLA DRB1*0401
T7 construct: purified from EBV transformed homozygous cell lines or single MHC allele transfected 721.221, C1R, or fibroblast lines; made in house
Outline: as §4

T4 sequence (P01903 26-254, other chains not shown): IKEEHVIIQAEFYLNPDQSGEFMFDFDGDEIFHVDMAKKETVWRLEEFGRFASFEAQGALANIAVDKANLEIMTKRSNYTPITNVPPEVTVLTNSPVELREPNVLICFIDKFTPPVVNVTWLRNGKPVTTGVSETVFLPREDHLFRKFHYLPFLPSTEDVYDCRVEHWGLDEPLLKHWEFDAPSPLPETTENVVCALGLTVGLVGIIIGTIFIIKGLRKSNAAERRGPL

IC50 (purified HLA DRB1*0301)	IC50 (purified HLA DRB1*0404)	IC50 (purified HLA DRB1*0802)	IC50 (purified HLA DRB1*1101)	IC50 (purified HLA DRB1*1201)	IC50 (purified HLA DRB3*0101)	Total XRN [2]	IC50 (purified HLA DRB1*0401)	SMILES	Percent of patients with responses [1]
74 nM	7000 nM	> 20000 nM	> 20000 nM	> 20000 nM	> 20000 nM			CC[C@H](C)[C@H](NC(=O)[C@H](CO)NC(=O)[C@@H]1CCCN1C(=O)[C@H](CCCCN)NC(=O)[C@@H]1CCCN1C(=O)[C@H](CC(C)C)NC(=O)[C@H](CCC(=O)O)NC(=O)[C@H](C)NC(=O)[C@H](CO)NC(=O)[C@@H](NC(=O)[C@@H](NC(=O)[C@@H](NC(=O)[C@@H](N)[C@@H](C)O)[C@@H](C)CC)[C@@H](C)O)C(C)C)C(=O)N[C@@H](CO)C(=O)N[C@@H](CO)C(=O)O [Peptide 9019.0132]	
						9		CC(C)C[C@H](NC(=O)[C@H](CC(N)=O)NC(=O)[C@H](CO)NC(=O)[C@@H](NC(=O)[C@H](Cc1ccccc1)NC(=O)[C@H](CS)NC(=O)[C@H](C)NC(=O)[C@@H](N)Cc1ccc(O)cc1)C(C)C)C(=O)N[C@@H](C)C(=O)N[C@H](C(=O)NCC(=O)N[C@@H](CCCNC(=N)N)C(=O)N[C@@H](CC(N)=O)C(=O)N[C@@H](CC(N)=O)C(=O)N[C@@H](CO)C(=O)O)[C@@H](C)O [Peptide 9019.0141]	25%
> 20000 nM		> 20000 nM		> 20000 nM	> 20000 nM		360 nM	CSCC[C@H](NC(=O)[C@H](C)NC(=O)[C@@H](N)CCCNC(=N)N)C(=O)N[C@@H](CC(C)C)C(=O)N[C@@H](CCCCN)C(=O)N[C@@H](C)C(=O)N[C@@H](CCC(=O)O)C(=O)N[C@@H](CCC(=O)O)C(=O)N[C@H](C(=O)N[C@@H](CS)C(=O)N[C@@H](C)C(=O)N1CCC[C@H]1C(=O)N[C@@H](CO)C(=O)N[C@H](C(=O)N[C@@H](CO)C(=O)O)C(C)C)[C@@H](C)O [Peptide 9019.0148]	
